These results are taken from patent US20050009924A1 (priority 2003, published 2005).

Data set [1] deals with hepatitis B virus transfected hepatoma cell lines, HepG 2.2.15 cells. Briefly: Cytotoxicity assay, 2.2.15 cells. It is filed as cell-based, human. The settings on record: Homo sapiens, HepG2.2.15; 48 h of drug exposure.
The subject of a further data set is human hepatoma G2 cells. Description: Cytotoxicity assay (XTT colorimetric), Hep G2. It is filed as cell-based. To be noted: Homo sapiens, HepG2; 48 h of drug exposure.
A short description of data set [2]: MTT relative viability, PhTERT-SEAP (H1299) cells. To be noted: human.
Data set [3] relates to transcriptional activity of hTERT. Description: SEAP reporter assay of hTERT expression, PhTERT-SEAP (H1299). To be noted: PhTERT-SEAP(hTERT-H1299). It is filed as cell-based, human. A digest of the protocol:
(§1)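 SEAP activity, read as rate of 405 nm absorbance rise with 12 mM p-nitrophenyl phosphate in diethanolamine/MgCl2/homoarginine buffer after 65 °C, 10 min heat inactivation, reports hTERT or CMV promoter activity. G418-selected stable H1299 or hTERT-BJ1 reporter lines were exposed to drug for 24 h.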

The subject of another data set is rat glioma C6 cells. Description: Cytotoxicity assay (XTT colorimetric), C6 cells. It is filed as cell-based. The settings on record: Rattus norvegicus, C6; 48 h of drug exposure.
Data set [4] concerns transcriptional activity of hTERT. Description: SEAP reporter assay of hTERT expression, PhTERT-SEAP (hTERT-BJ1). It is filed as cell-based, human. The settings on record: PhTERT-SEAP (hTERT-BJ1). Summed up:
as §1

Data set [5] is described as follows: MTT relative viability, PhTERT-SEAP (hTERT-BJ1) cells. To be noted: human.
Setting [6] is: Homo sapiens, NCI-H1299, 2.1 μM, read-out: Relative SEAP activity (%).
The mark [7] stands for this setting: Homo sapiens, NCI-H1299, 21 μM, read-out: Relative SEAP activity (%).
Where [8] appears, read: Homo sapiens, 2.1 μM, read-out: Relative SEAP activity (%).
The mark [9] stands for this setting: Homo sapiens, 21 μM, read-out: Relative SEAP activity (%).
Setting [10] is: hTERT-BJ1 cells stably transfected with PhTERT-SEAP reporter.
Where [11] appears, read: hTERT-BJ1 cells, stable PhTERT-SEAP reporter clone.
Where [12] appears, read: Homo sapiens, NCI-H1299, 2.0 μM, read-out: Relative SEAP activity (%).
The mark [13] stands for this setting: Homo sapiens, NCI-H1299, 20 μM, read-out: Relative SEAP activity (%).
Where [14] appears, read: Homo sapiens, 2.0 μM, read-out: Relative SEAP activity (%).
Where [15] appears, read: Homo sapiens, 20 μM, read-out: Relative SEAP activity (%).

For `O=C(Nc1ccc(NC(=O)c2cccs2)c2c1C(=O)c1ccccc1C2=O)c1cccs1` [VI22, 1,4-Bis(2-thiopheneamido)-9,10-anthracenedione], the melting point was in the range of 321 to 322 °C. Also, the IC50 in data set [1] is above 20 µM. In the data set on human hepatoma G2 cells, this compound registered an IC50 above 20 µM. Besides, in data set [2], the viability at 48 h, 2.1 µM worked out at 108 ± 3.7%; the viability at 48 h, 21 µM turned out to be 107 ± 8.5%; the viability at 48 h, 218 µM was determined as 84 ± 4.3%. This compound also showed an SEAP/vibility in data set [3] (2.1 μM) of 0.93. The compound also came in with an SEAP/vibility in data set [3] (21 μM) of 0.98. In data set [3] (218 μM), the SEAP/vibility amounted to 1.16. For the same compound, the activity at 2.1 µM in data set [3] (setting [6]) is 100 ± 3.1%. The activity at 21 µM in data set [3] (setting [7]) worked out at 105 ± 5.9%. For the same compound, in data set [3] (Homo sapiens, NCI-H1299, 218 μM, read-out: Relative SEAP activity (%)), the activity at 218 µM is 97 ± 4.9%. In addition, the IC50 in the data set with rat glioma C6 cells is above 20 µM. Further, in data set [4] (2.1 μM), the SEAP/vibility was 0.80. Also, the SEAP/vibility in data set [4] (21 μM) came out at 0.93. This compound yielded an SEAP/vibility in data set [4] (218 μM) of 1.07. Also, the activity at 2.1 µM in data set [4] (setting [8]) was 94 ± 20.2%. In data set [4] (setting [9]), the activity at 21 µM was found to be 92 ± 17.4%. Also, the activity at 218 µM in data set [4] (Homo sapiens, 218 μM, read-out: Relative SEAP activity (%)) turned out to be 90 ± 22.7%. For the same compound, the viability at 48 h, 218 µM in data set [5] (setting [10]) turned out to be 84 ± 6.9%. Besides, in data set [5] (setting [11]), the viability at 48 h, 2.1 µM was 118 ± 10.6% and the viability at 48 h, 21 µM amounted to 99 ± 8.2%.
As for `O=C(Cc1cccs1)Nc1ccc(NC(=O)Cc2cccs2)c2c1C(=O)c1ccccc1C2=O` [VI25, 1,4-Bis(2-thiopheneacetamido)-9,10-anthracenedione], the melting point lay in the range of 158 to 160 °C. The same compound displayed an IC50 in data set [1] of 15.5 µM. In the data set with human hepatoma G2 cells, the IC50 was above 20 µM. In data set [2], the viability at 48 h, 2 µM was determined as 104 ± 8%; the viability at 48 h, 20 µM was found to be 83 ± 6.6%; the viability at 48 h, 205 µM worked out at 41 ± 4%. Besides, the SEAP/vibility in data set [3] (2.0 μM) is 1.06. Moreover, the SEAP/vibility in data set [3] (20 μM) is 1.39. This compound returned an SEAP/vibility in data set [3] (205 μM) of 2.47. Also, in data set [3] (setting [12]), the activity at 2 µM worked out at 111 ± 3.7%. Moreover, the activity at 20 µM in data set [3] (setting [13]) was found to be 115 ± 4.3%. Also, in data set [3] (Homo sapiens, NCI-H1299, 205 μM, read-out: Relative SEAP activity (%)), the activity at 205 µM amounted to 102 ± 5.5%. In the data set on rat glioma C6 cells, this compound returned an IC50 above 20 µM. The SEAP/vibility in data set [4] (2.0 μM) is 0.45. In data set [4] (20 μM), this compound showed an SEAP/vibility of 0.38. The SEAP/vibility in data set [4] (205 μM) was determined as 0.19. The activity at 2 µM in data set [4] (setting [14]) was 53 ± 17.4%. Further, in data set [4] (setting [15]), the activity at 20 µM was found to be 40 ± 12.7%. For the same compound, the activity at 205 µM in data set [4] (Homo sapiens, 205 μM, read-out: Relative SEAP activity (%)) came to 14 ± 24.1%. Besides, in data set [5] (setting [10]), the viability at 48 h, 205 µM turned out to be 76 ± 6.5%. In addition, in data set [5] (setting [11]), the viability at 48 h, 2 µM is 116 ± 7.5% and the viability at 48 h, 20 µM was 105 ± 4.4%.
As for `O=C(Cc1ccc(F)cc1)Nc1ccc(NC(=O)Cc2ccc(F)cc2)c2c1C(=O)c1ccccc1C2=O` [VI32, 1,4-Bis(4-fluorophenylacetamido)-9,10-anthracenedione], the melting point lay in the range of 228 to 230 °C. The IC50 in data set [1] is above 20 µM. The IC50 in the data set on human hepatoma G2 cells was above 20 µM. For the same compound, in data set [2], the viability at 48 h, 1.9 µM is 108 ± 8.8%; the viability at 48 h, 19 µM was found to be 107 ± 7.5%; the viability at 48 h, 195 µM is 78 ± 8%. This compound also yielded an SEAP/vibility in data set [3] (1.9 μM) of 1.00. Besides, the SEAP/vibility in data set [3] (19 μM) came to 1.03. The SEAP/vibility in data set [3] (195 μM) was 1.39. Further, the activity at 1.9 µM in data set [3] (Homo sapiens, NCI-H1299, 1.9 μM, read-out: Relative SEAP activity (%)) was 109 ± 10.8%. The activity at 19 µM in data set [3] (Homo sapiens, NCI-H1299, 19 μM, read-out: Relative SEAP activity (%)) came out at 109 ± 5.8%. Besides, in data set [3] (Homo sapiens, NCI-H1299, 195 μM, read-out: Relative SEAP activity (%)), the activity at 195 µM was found to be 109 ± 6.6%. Moreover, in the data set on rat glioma C6 cells, the concentration for half-maximal inhibition (IC50) is above 20 µM. Besides, in data set [4] (1.9 μM), the SEAP/vibility came out at 0.84. The SEAP/vibility in data set [4] (19 μM) is 1.02. This compound also came in with an SEAP/vibility in data set [4] (195 μM) of 1.01. The activity at 1.9 µM in data set [4] (Homo sapiens, 1.9 μM, read-out: Relative SEAP activity (%)) amounted to 90 ± 18.4%. Moreover, the activity at 19 µM in data set [4] (Homo sapiens, 19 μM, read-out: Relative SEAP activity (%)) was determined as 102 ± 20%. Also, in data set [4] (Homo sapiens, 195 μM, read-out: Relative SEAP activity (%)), the activity at 195 µM worked out at 97 ± 11.6%. Moreover, in data set [5] (setting [11]), the viability at 48 h, 1.9 µM amounted to 107 ± 7.2%; the viability at 48 h, 19 µM was 100 ± 6.3%; the viability at 48 h, 195 µM came to 96 ± 4.1%.
As for `CCN(CC)CC(=O)Nc1ccc(NC(=O)CN(CC)CC)c2c1C(=O)c1ccccc1C2=O` [VI33, 1,4-Bis[2-(diethylamino)acetamido]-9,10-anthracenedione], the melting point is 85 to 86 °C. In data set [1], this compound returned an IC50 of 13 µM. This compound also came in with an IC50 with human hepatoma G2 cells of 0.65 µM. Further, in data set [2], the viability at 48 h, 2.1 µM turned out to be 105 ± 4.9%; the viability at 48 h, 21 µM was determined as 87 ± 3.9%; the viability at 48 h, 215 µM worked out at 44 ± 2.7%. In data set [3] (2.1 μM), this compound returned an SEAP/vibility of 0.94. This compound also came in with an SEAP/vibility in data set [3] (21 μM) of 0.99. Also, the SEAP/vibility in data set [3] (215 μM) came to 1.11. The activity at 2.1 µM in data set [3] (setting [6]) amounted to 98 ± 3.3%. Besides, the activity at 21 µM in data set [3] (setting [7]) amounted to 86 ± 7.4%. Besides, the activity at 215 µM in data set [3] (Homo sapiens, NCI-H1299, 215 μM, read-out: Relative SEAP activity (%)) worked out at 48 ± 2.3%. Moreover, the IC50 in the data set on rat glioma C6 cells came to 4.46 µM. In data set [4] (2.1 μM), this compound returned an SEAP/vibility of 1.06. The SEAP/vibility in data set [4] (21 μM) is 1.40. In data set [4] (215 μM), this compound yielded an SEAP/vibility of 2.61. In addition, the activity at 2.1 µM in data set [4] (setting [8]) is 111 ± 24.4%. The activity at 21 µM in data set [4] (setting [9]) was 120 ± 25.6%. For the same compound, in data set [4] (Homo sapiens, 215 μM, read-out: Relative SEAP activity (%)), the activity at 215 µM amounted to 83 ± 19%. Further, in data set [5] (setting [11]), the viability at 48 h, 2.1 µM was found to be 105 ± 2.8%; the viability at 48 h, 21 µM turned out to be 86 ± 3.5%; the viability at 48 h, 215 µM amounted to 32 ± 13.1%.
`CCN(CC)C(C)C(=O)Nc1ccc(NC(=O)C(C)N(CC)CC)c2c1C(=O)c1ccccc1C2=O` (centres unmarked) [VI35, 1,4-Bis[2-(diethylamino)propionamido]-9,10-anthracenedione] had a melting point of 175 to 177 °C. The compound further came in with an IC50 in data set [1] of 8.57 µM. Besides, the IC50 in the data set with human hepatoma G2 cells was 2.02 µM. In data set [2], the viability at 48 h, 2 µM worked out at 96 ± 7.9%; the viability at 48 h, 20 µM was 77 ± 7.2%; the viability at 48 h, 203 µM was found to be 75 ± 4.6%. The compound also registered an SEAP/vibility in data set [3] (2.0 μM) of 1.00. In data set [3] (20 μM), the SEAP/vibility was found to be 1.35. The compound also registered an SEAP/vibility in data set [3] (203 μM) of 0.98. In addition, the activity at 2 µM in data set [3] (setting [12]) was 96 ± 14.3%. In data set [3] (setting [13]), the activity at 20 µM was found to be 104 ± 6%. The activity at 203 µM in data set [3] (Homo sapiens, NCI-H1299, 203 μM, read-out: Relative SEAP activity (%)) came out at 73 ± 11.7%. The same compound returned an IC50 with rat glioma C6 cells of 18.1 µM. In addition, in data set [4] (2.0 μM), the SEAP/vibility was 0.41. The compound also gave an SEAP/vibility in data set [4] (20 μM) of 0.94. This compound also showed an SEAP/vibility in data set [4] (203 μM) of 0.61. Further, in data set [4] (setting [14]), the activity at 2 µM came out at 40 ± 14.5%. In addition, in data set [4] (setting [15]), the activity at 20 µM stood at 49 ± 9.3%. Besides, the activity at 203 µM in data set [4] (Homo sapiens, 203 μM, read-out: Relative SEAP activity (%)) is 22 ± 6.6%. In data set [5] (setting [11]), the viability at 48 h, 2 µM is 97 ± 3.9%; the viability at 48 h, 20 µM worked out at 52 ± 7.2%; the viability at 48 h, 203 µM came to 36 ± 5.8%.
